Data from PubChem BioAssay (NCI).
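Growth conditions: 96-well plates. Treatment: test compound, 48 hours, 5 concentrations. Analysis: linear interpolation between bracketing concentrations; unreached endpoints set to highest concentration. GI50: concentration for 50% inhibition of growth. Definition used: TGI = concentration required for complete inhibition of growth.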

Key:
Assay in all cases: NCI tumour cell line growth inhibition, 48 h
K-562 leukemia = test system: K-562 leukemia
SNB-75 CNS = test system: SNB-75 CNS
A549 NSCLC = test system: A549 NSCLC
HCT-15 colon = test system: HCT-15 colon
SK-MEL-5 melanoma = test system: SK-MEL-5 melanoma
OVCAR-4 ovarian = test system: OVCAR-4 ovarian
U251 CNS = test system: U251 CNS
HOP-62 NSCLC = test system: HOP-62 NSCLC
ACHN renal = test system: ACHN renal
SW-620 colon = test system: SW-620 colon
BT-549 breast = test system: BT-549 breast
SK-MEL-28 melanoma = test system: SK-MEL-28 melanoma
OVCAR-3 ovarian = test system: OVCAR-3 ovarian
COLO 205 colon = test system: COLO 205 colon
PC-3 prostate = test system: PC-3 prostate
UO-31 renal = test system: UO-31 renal
SK-OV-3 ovarian = test system: SK-OV-3 ovarian
HL-60(TB) leukemia = test system: HL-60(TB) leukemia
IGROV1 ovarian = test system: IGROV1 ovarian
786-0 renal = test system: 786-0 renal
UACC-257 melanoma = test system: UACC-257 melanoma
SR leukemia = test system: SR leukemia
RXF 393 renal = test system: RXF 393 renal
HT29 colon = test system: HT29 colon
HCC-2998 colon = test system: HCC-2998 colon
HOP-92 NSCLC = test system: HOP-92 NSCLC
T-47D breast = test system: T-47D breast
MDA-MB-435 = test system: MDA-MB-435

In the case of `CCn1c2ccc(/C=N/OCCCN(C)C)cc2c2cc(/C=N/OCCCN(C)C)ccc21`, the GI50 (K-562 leukemia) is reported as 1490 nM, the TGI (K-562 leukemia) is reported as 3630 nM and the GI50 (SNB-75 CNS) is reported as 1680 nM. For the same compound, the TGI (SNB-75 CNS) was 3930 nM, the GI50 (A549 NSCLC) was 1590 nM and the TGI (A549 NSCLC) was 3010 nM. For the same compound, the GI50 (HCT-15 colon) was 1750 nM, the TGI (HCT-15 colon) was 3960 nM and the GI50 (SK-MEL-5 melanoma) was 1800 nM. For the same compound, the TGI (SK-MEL-5 melanoma) was 3230 nM, the GI50 (OVCAR-4 ovarian) was 1730 nM and the TGI (OVCAR-4 ovarian) was 3350 nM. It also gave a GI50 (U251 CNS) of 1620 nM, a TGI (U251 CNS) of 3140 nM and a GI50 (HOP-62 NSCLC) of 4640 nM. The TGI (HOP-62 NSCLC) was 18900 nM, the GI50 (ACHN renal) was 1720 nM and the TGI (ACHN renal) was 3130 nM. The GI50 (SW-620 colon) was 1810 nM, the TGI (SW-620 colon) was 3780 nM and the GI50 (BT-549 breast) was 1710 nM. For the same compound, the TGI (BT-549 breast) was 3220 nM, the GI50 (SK-MEL-28 melanoma) was 1650 nM and the TGI (SK-MEL-28 melanoma) was 3180 nM. It also gave a GI50 (OVCAR-3 ovarian) of 2080 nM, a TGI (OVCAR-3 ovarian) of 5280 nM and a GI50 (COLO 205 colon) of 1610 nM. It also gave a TGI (COLO 205 colon) of 3050 nM, a GI50 (PC-3 prostate) of 2510 nM and a TGI (PC-3 prostate) of 10900 nM. The GI50 (UO-31 renal) was 1500 nM, the TGI (UO-31 renal) was 3240 nM and the GI50 (SK-OV-3 ovarian) was 16400 nM. For the same compound, the TGI (SK-OV-3 ovarian) was 31200 nM, the GI50 (HL-60(TB) leukemia) was 1680 nM and the TGI (HL-60(TB) leukemia) was 3950 nM. It also gave a GI50 (IGROV1 ovarian) of 3080 nM, a TGI (IGROV1 ovarian) of 10300 nM and a GI50 (786-0 renal) of 1550 nM. The TGI (786-0 renal) was 3200 nM, the GI50 (UACC-257 melanoma) was 1680 nM and the TGI (UACC-257 melanoma) was 3090 nM. It also gave a GI50 (SR leukemia) of 1830 nM, a TGI (SR leukemia) of 4380 nM and a GI50 (RXF 393 renal) of 1180 nM. For the same compound, the TGI (RXF 393 renal) was 2490 nM, the GI50 (HT29 colon) was 1520 nM and the TGI (HT29 colon) was 3510 nM. For the same compound, the GI50 (HCC-2998 colon) was 1510 nM, the TGI (HCC-2998 colon) was 2950 nM and the GI50 (HOP-92 NSCLC) was 1700 nM. The TGI (HOP-92 NSCLC) was 8220 nM, the GI50 (T-47D breast) was 1800 nM and the TGI (T-47D breast) was 3820 nM. It also gave a GI50 (MDA-MB-435) of 1480 nM and a TGI (MDA-MB-435) of 2840 nM.
